In patent publication EP1949899A1, “Metal salophen complexes use in prevention and treatment of cancer” (Freie Universität Berlin, priority 2007, dated 2008):
Like-named read-outs stand apart in the source and are kept apart here.

Legend:
LNCaP-FGC-cells = experiment: Time dependent test (crystal violet assay) on LNCaP-FGC-cells; assay type: cell-based
Method: The time dependent tests were performed according to Reile, H. et al.: "Computerized Determination of Growth Kinetic Curves and Doubling Times from Cells in Microculture", Analytical Biochemistry, 1990, 187 (2): 262-267; Bernhardt, G. et al.: "Standardized kinetic microassay to quantifiy differential chemosensitivity on the basis of proliferative activity", Journal of Research Clin. Oncol., 1992, 118: 35-43 and Gust, R. et al.: "Development of Cobalt(3,4-diarylsalen) Complexes as Tumor Therapeutics", Journal of Medicinal Chemistry, 2004, 47 (24): 5837-5846.
Determining the cell mass in the crystal violet assay the interpretation of the received values was the following: […]

MCF-7 cells [1] = conditions: Ghezzi, A. et al., 2004; cited from earlier work
MCF-7-cells = experiment: Concentration dependent cytotoxicity test (IC50) on MCF-7 cells; assay type: cell-based
Method: (§1) Measurement of IC50-values was performed as described by Ott, I. et al., Journal of Medicinal Chemistry, 2005, 48 (2): 622-629. But unlike described in the literature, the experiments with MCF-7-cells were stopped after 96 hours and experiments with MDA-MB-231-cells were stopped after 72 hours.

MDA-MB-231-cells = experiment: Concentration dependent cytotoxicity test (IC50) on MDA-MB-231 cells; assay type: cell-based
Method: as §1

MCF-7 cells [2] = experiment: Time dependent test (crystal violet assay) on MCF-7 cells; assay type: cell-based
MDA-MB-231 cells = experiment: Time dependent test (crystal violet assay) on MDA-MB-231 cells; assay type: cell-based
HeLa cells = experiment: Time dependent test (crystal violet assay) on HeLa cells; assay type: cell-based
[3] = system: supercoiled plasmid DNA (pSK Bluescript); experiment: DNA cleavage reactions with plasmid DNA on agarose gels; assay type: biochemical; conditions: for DNA cleaving effect: 1 h at 37 °C
Method: General procedure for DNA cleavage reactions with plasmid DNA on agarose gels
100 µl reaction mixture contained 1 µg of supercoiled plasmid DNA (pSK Bluescript) in a tris-HCI buffer at pH 7.0, 1 µl of iron complex solution at the desired concentration (10 mM to 10 µM in DMSO) and in some cases 1 µl of 100 µM dithiothreitol solution resp. 1 µl of 1 mM mercaptoethanol solution. After incubation at 37 °C for the indicated time, 1 µl of loading buffer (0.25 % bromophenol blue, 0,25 % xylene cyanol, 30 % glycerin in H2O) was added to 5 µl reaction mixture (containing 50 ng plasmid DNA) and subsequently loaded onto a 0.8 % agarose gel. One µl of 1 kb-DNA-ladder (NewEnglandBiolabs, #N3232L) was loaded for estimation of size and amount of loaded DNA sample. The electrophoresis was carried out for ~ 45 min at 100 V in TBE buffer at pH 8.3. Gels were stained with etidium bromide (1 µg/ml) and photographed under 254 nm UV light.

[4] = Homo sapiens, MCF7, MCF-7, stopped after 96 hours, read-out: IC50
[5] = Homo sapiens, MDA-MB-231, stopped after 72 hours, read-out: IC50
[6] = MCF-7, stopped after 96 hours, read-out: IC50
[7] = MDA-MB-231, stopped after 72 hours, read-out: IC50
[8] = higher concentrations (1-10 µM)
[9] = low concentrations (0,1 µM), in the presence of a reducing agent

SMILES: N.N.O=C([O-])C1(C(=O)[O-])CCC1.[Pt+2] [Carboplatin]
- minimum T/Ccorr- resp. τ-value (LNCaP-FGC-cells; 0.5 µM): 69.5%
- minimum T/Ccorr- resp. τ-value (LNCaP-FGC-cells; 1 µM): 55.5%
- minimum T/Ccorr- resp. τ-value (LNCaP-FGC-cells; 5 µM): 19.6%
- enrichment in comparison with the outer medium (MCF-7 cells [1]): 1,6

SMILES: Nc1ccccc1N [o-phenylenediamine]
- IC50 (MCF-7-cells; [4]): 5.1 µM
- IC50 (MDA-MB-231-cells; [5]): 23.5 µM

SMILES: N.N.[Cl][Pt][Cl] [cisplatin, reference compound]
- IC50 (MCF-7-cells; [6]): 2 µM
- IC50 (MDA-MB-231-cells; [7]): 4 µM
- minimum T/Ccorr- resp. τ-value (MCF-7 cells [2]; MCF-7, 0.5 µM): 55.1%
- minimum T/Ccorr- resp. τ-value (MCF-7 cells [2]; MCF-7, 1 µM): 2.2%
- minimum T/Ccorr- resp. τ-value (MDA-MB-231 cells; MDA-MB-231, 0.5 µM): 79.7%
- minimum T/Ccorr- resp. τ-value (MDA-MB-231 cells; MDA-MB-231, 1 µM): 69.0%
- minimum T/Ccorr- resp. τ-value (HeLa cells; 0.5 µM): 55.9%
- minimum T/Ccorr- resp. τ-value (HeLa cells; 1 µM): 33.5%
- minimum T/Ccorr- resp. τ-value (LNCaP-FGC-cells; 0.5 µM): 59.0%
- minimum T/Ccorr- resp. τ-value (LNCaP-FGC-cells; 1 µM): 32.7%
- minimum T/Ccorr- resp. τ-value (LNCaP-FGC-cells; 5 µM): 6.7%
- enrichment in comparison with the outer medium (MCF-7 cells [1]): fivefold

SMILES: Oc1ccccc1C=Nc1ccccc1N=Cc1ccccc1O [ligand, N,N'-bis(salicylidene)-phenylene-1,2-diamine, reference compound]
- DNA decomposition ([3]; 1 h incubation at 37 °C, with or without additional reducing agents (DTT, 2-ME)): not able to decompose DNA

SMILES: [Fe+2].[O-]c1ccccc1C=Nc1ccccc1N=Cc1ccccc1[O-] [Fe(II)salophen, [N,N'-Bis(salicylidene)phenylene-1,2-diamine]-iron(II)]
- DNA cleaving effect [3, 8]: DNA double strand breakages
- DNA cleaving effect [3, 9]: DNA single strand breakages
- IC50 (MCF-7-cells; [6]): 0.4 µM
- IC50 (MDA-MB-231-cells; [7]): 0.1 µM
- minimum T/Ccorr- resp. τ-value (MCF-7 cells [2]; MCF-7, 0.05 µM): 96.5%
- minimum T/Ccorr- resp. τ-value (MCF-7 cells [2]; MCF-7, 0.1 µM): 96.7%
- minimum T/Ccorr- resp. τ-value (MCF-7 cells [2]; MCF-7, 0.5 µM): 35.7%
- minimum T/Ccorr- resp. τ-value (MCF-7 cells [2]; MCF-7, 1 µM): -35.9%
- minimum T/Ccorr- resp. τ-value (MDA-MB-231 cells; MDA-MB-231, 0.05 µM): 90.0%
- minimum T/Ccorr- resp. τ-value (MDA-MB-231 cells; MDA-MB-231, 0.1 µM): 41.9%
- minimum T/Ccorr- resp. τ-value (MDA-MB-231 cells; MDA-MB-231, 0.5 µM): -19.1%
- minimum T/Ccorr- resp. τ-value (MDA-MB-231 cells; MDA-MB-231, 1 µM): -29.7%
- minimum T/Ccorr- resp. τ-value (LNCaP-FGC-cells; 0.1 µM): 47.3%
- minimum T/Ccorr- resp. τ-value (LNCaP-FGC-cells; 0.5 µM): 8.9%
- minimum T/Ccorr- resp. τ-value (LNCaP-FGC-cells; 1 µM): -25.6%

SMILES: C#CCOC(=O)c1ccccc1OC(C)=O.[C-]#[O+].[C-]#[O+].[C-]#[O+].[C-]#[O+].[C-]#[O+].[C-]#[O+].[Co].[Co] [Co-Ass, Hexacarbonyl[2-propyn-1-ylacetylsalicylat]dicobalt]
- IC50 (MCF-7-cells; [6]): 1.4 µM
- IC50 (MDA-MB-231-cells; [7]): 1.9 µM

SMILES: O=c1[nH]cc(F)c(=O)[nH]1 [5-fluorouracil]
- IC50 (MCF-7-cells; [4]): 4.8 µM
- IC50 (MDA-MB-231-cells; [5]): 9.6 µM

SMILES: [Cl-].[Fe+3].[O-]c1ccccc1C=Nc1ccccc1N=Cc1ccccc1[O-] [Fe(III)salophen chloride, [N,N'-Bis(salicylidene)phenylene-1,2-diamine]-iron(III)-chloride]
- DNA cleaving effect [3, 8]: DNA double strand breakages
- DNA cleaving effect [3, 9]: DNA single strand breakages
- IC50 (MCF-7-cells; [6]): 0.3 µM
- IC50 (MDA-MB-231-cells; [7]): 0.01 µM
- minimum T/Ccorr- resp. τ-value (MCF-7 cells [2]; MCF-7, 0.05 µM): 92.6%
- minimum T/Ccorr- resp. τ-value (MCF-7 cells [2]; MCF-7, 0.1 µM): 80.4%
- effect on cell mass (interpretation of T/Ccorr resp. τ) (MCF-7 cells [2]; MCF-7, 0.5 µM): cytocide effect (T/Ccorr or τ < 0 %)
- minimum T/Ccorr- resp. τ-value (MCF-7 cells [2]; MCF-7, 0.5 µM): -23.4%
- minimum T/Ccorr- resp. τ-value (MCF-7 cells [2]; MCF-7, 1 µM): -50.8%
- minimum T/Ccorr- resp. τ-value (MDA-MB-231 cells; MDA-MB-231, 0.05 µM): 46.0%
- minimum T/Ccorr- resp. τ-value (MDA-MB-231 cells; MDA-MB-231, 0.1 µM): 66.2%
- minimum T/Ccorr- resp. τ-value (MDA-MB-231 cells; MDA-MB-231, 0.5 µM): -27.8%
- minimum T/Ccorr- resp. τ-value (MDA-MB-231 cells; MDA-MB-231, 1 µM): -40.8%
- minimum T/Ccorr- resp. τ-value (HeLa cells; 0.1 µM): 36.2%
- minimum T/Ccorr- resp. τ-value (HeLa cells; 0.5 µM): 52.1%
- minimum T/Ccorr- resp. τ-value (HeLa cells; 1 µM): -26.0%
- minimum T/Ccorr- resp. τ-value (LNCaP-FGC-cells; 0.1 µM): 34.4%
- minimum T/Ccorr- resp. τ-value (LNCaP-FGC-cells; 0.5 µM): 3.6%
- minimum T/Ccorr- resp. τ-value (LNCaP-FGC-cells; 1 µM): -19.5%

SMILES: N[C@@H](Cc1ccc(N(CCCl)CCCl)cc1)C(=O)O [Melphalan]
- IC50 (MCF-7-cells; Homo sapiens, MCF7, 96 h): 5.7 µM
- IC50 (MDA-MB-231-cells; Homo sapiens, MDA-MB-231, 72 h): 3.9 µM

SMILES: O=C1[O][Pt]2([NH][C@@H]3CCCC[C@H]3[NH]2)[O]C1=O [Oxaliplatin]
- minimum T/Ccorr- resp. τ-value (LNCaP-FGC-cells; 0.5 µM): 12.7%
- minimum T/Ccorr- resp. τ-value (LNCaP-FGC-cells; 1 µM): -0.6%
- minimum T/Ccorr- resp. τ-value (LNCaP-FGC-cells; 5 µM): -31.0%
- enrichment in comparison with the outer medium (MCF-7 cells [1]): sixfold

SMILES: CC(=O)[O-].CC(=O)[O-].[Fe+2] [Fe(OAc)2]
- IC50 (MCF-7-cells; [6]): > 50 µM
- IC50 (MDA-MB-231-cells; [7]): > 50 µM

SMILES: [Cl][Fe]([Cl])[Cl] [FeCl3]
- IC50 (MCF-7-cells; [6]): > 100 µM
- IC50 (MDA-MB-231-cells; [7]): > 100 µM
